Test results published in ChEMBL document CHEMBL1140670, “Synthesis and evaluation of a phosphonate analogue of the soluble guanylate cyclase activator YC-1” (Bioorg Med Chem Lett, 2007).

What was measured:
[1] = Activation of sGC heme complex expressed in Sf9 cells at 150 uM relative to control; details: Homo sapiens
[2] = Activation of sGC heme complex expressed in Sf9 cells at 150 uM in presence of nitric oxide relative to control; details: Homo sapiens
[3] = Activation of sGC heme complex expressed in Sf9 cells at 150 uM in presence of carbon monoxide relative to control; details: Homo sapiens
[4] = Activation of sGC heme complex expressed in Sf9 cells at 800 uM relative to control; details: Homo sapiens
[5] = Activation of sGC heme complex expressed in Sf9 cells at 800 uM in presence of nitric oxide relative to control; details: Homo sapiens
[6] = Activation of sGC heme complex expressed in Sf9 cells at 800 uM in presence of carbon monoxide relative to control; details: Homo sapiens
[7] = Aqueous solubility of the compound; format: physicochemical

solubility [7] [µM] | Compound | Activity [1] | Activity [2] | Activity [3] | Activity [4] | Activity [5] | Activity [6]
– | OCc1ccc(-c2nn(Cc3ccccc3)c3ccccc23)o1 | 6.4 | 270 | 87 | – | – | –
> 800 | O=P(O)(O)Cc1ccc(-c2nn(Cc3ccccc3)c3ccccc23)o1 | 5.2 | 38 | 16 | 1.4 | 10 | 1.2
